Data from paper PMC10709440, “High-throughput ligand profile characterization in novel cell lines expressing seven heterologous insect olfactory receptors for the detection of volatile plant biomarkers” (Scientific Reports, 2023).
Read-outs that look alike come from different tables or passages of the source.

Experiments:
Drosophila OR47a = target: T1, Drosophila OR47a (Drosophila melanogaster, UniProt P81921); assay: cell-based; set-up: GCaMP6 calcium fluorescence in stable HEK293 OR+ORCO lines; peak dF normalised to 50 uM VUAA1 (=1); conditions: HEK293; relative to 50 uM VUAA1 response; below 0.05 set to 0; read-out: % activation
T1 construct: expressed in transfected cells
T1 sequence (P81921 1-385): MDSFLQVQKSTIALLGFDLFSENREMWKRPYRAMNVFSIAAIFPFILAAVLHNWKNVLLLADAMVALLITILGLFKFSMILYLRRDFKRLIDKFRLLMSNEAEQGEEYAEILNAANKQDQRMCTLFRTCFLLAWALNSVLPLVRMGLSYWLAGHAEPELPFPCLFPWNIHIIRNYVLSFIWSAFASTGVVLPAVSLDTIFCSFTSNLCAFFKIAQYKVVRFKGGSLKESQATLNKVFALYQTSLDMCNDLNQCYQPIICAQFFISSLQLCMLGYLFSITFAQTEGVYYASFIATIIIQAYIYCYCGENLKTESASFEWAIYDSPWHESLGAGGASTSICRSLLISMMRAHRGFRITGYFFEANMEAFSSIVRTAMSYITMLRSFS
T1 sequence (Q9VNB5 1-486 partner): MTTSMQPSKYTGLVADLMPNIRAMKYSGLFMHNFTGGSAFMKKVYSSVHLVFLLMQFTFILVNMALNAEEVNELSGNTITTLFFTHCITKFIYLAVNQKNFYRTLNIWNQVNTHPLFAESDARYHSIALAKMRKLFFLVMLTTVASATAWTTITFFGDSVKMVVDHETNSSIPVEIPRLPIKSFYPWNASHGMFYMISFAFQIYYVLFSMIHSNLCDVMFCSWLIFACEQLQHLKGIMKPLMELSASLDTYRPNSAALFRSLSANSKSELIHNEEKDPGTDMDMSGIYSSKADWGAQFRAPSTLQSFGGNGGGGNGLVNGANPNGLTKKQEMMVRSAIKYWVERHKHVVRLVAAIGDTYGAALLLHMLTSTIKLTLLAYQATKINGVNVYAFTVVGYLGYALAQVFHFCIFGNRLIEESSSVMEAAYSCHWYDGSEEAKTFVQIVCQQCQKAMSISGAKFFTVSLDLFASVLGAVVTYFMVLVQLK
Summary of the method: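 Responses to VOCs (1, 10, 100 µM final) were read as fluorescence rise over baseline for 30 s in cells expressing the OR after 48–72 h doxycycline induction, in pH 7.3 buffer. ΔF values were divided by the same line's mean ΔF to 50 µM VUAA1 on that plate. Data are means of replicate days.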

OR47a = conditions: similar system to Xenopus oocytes, cited from earlier work

Structure (SMILES)	activity at 1 µM (Drosophila OR47a) [%]	activity at 10 µM (Drosophila OR47a) [%]	activity at 100 µM (Drosophila OR47a) [%]	EC50 (OR47a; ref 34, read-out: calculated EC50) [µM]	EC50 (OR47a; ref 39, read-out: calculated EC50) [µM]
CC/C=C/CCO [e3-hexenol]	6.26	0	14	–	–
CCCCCOC(C)=O [pentyl acetate]	–	–	–	30.8 ± 1.28	10.7 ± 2
